# pIC50, pKi: −log10 of the molar value. Starred links: 1 amine or outer side, 2 acyl side, 3 side chain; linkers in the order of their positions; H or OH if unused. Non-standard residues stand in square brackets, D forms with d. Residues, ends and D or L forms follow the SMILES beside them. X1 = C[C@@H]1CCO[C@H]1[C@H](C(=O)[*:2])N(C)[*:1]; d(aThr) = C[C@@H](O)[C@@H](N)C(=O)O; NMeL = CN[C@@H](CC(C)C)C(=O)O; dNMeL = CN[C@H](CC(C)C)C(=O)O; dNMeV = CN[C@@H](C(=O)O)C(C)C; dNMeA = CN[C@H](C)C(=O)O
# Tests used:
# [1] = biological target: T1, Human recombinant cyclophilin A (CypA) (Homo sapiens, UniProt P62937); assay: Protease-free PPIase assay, cyclophilin A; format: biochemical; conditions: human recombinant CypA, 10 °C, SUC-AAPF-pNA substrate; read-out: CypA Protease-free PPIase Assay Ki
# T1 construct: purchased Sigma C3805
# T1 sequence (P62937 whole entry): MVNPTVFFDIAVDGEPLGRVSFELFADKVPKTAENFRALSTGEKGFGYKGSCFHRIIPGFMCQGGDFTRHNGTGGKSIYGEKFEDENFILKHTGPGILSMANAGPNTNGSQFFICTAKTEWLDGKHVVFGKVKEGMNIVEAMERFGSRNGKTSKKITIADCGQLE
# Description: (§1) Protease-Free PPIase Assay The protease-free PPIase assay measures the rate of cis to trans conversion of a peptide substrate catalyzed by the enzyme cyclophilin A or D. Addition of a cyclophilin inhibitor (e.g., a test compound) slows the catalyzed rate and a Ki value is obtained. 35 mM HEPES pH 7.8, filtered through a 0.2 μm filter. 50 μM DTT was added prior to use each day and then the buffer was stored on ice. […] Human recombinant 6-His tagged cyclophilin D (CypD), prepared by the University of Edinburgh, was used to generate CypD inhibition data. Succinimide-[…]-nitroanilide (SUC-AAPF-pNA) (from Bachem AG, L-1400), 20 mg/ml prepared in 0.5 M LiCl in trifluoroethanol. All readings were taken with an Agilent 8453 Spectrophotometer which consisted of a cuvette holder, stirrer and chiller to maintain a stirred cuvette temperature of 10.0±0.1° C. The temperature was monitored by the use of temperature probe. […] The inhibitor was diluted in 100% DMSO, and then added to the assay to a maximum final concentration of 0.5% DMSO in the assay. […] The absorbance was measured at 330 nm for 300 s or 500 s for blank runs (NOTE: the substrate was added in one quick injection and the measurements started immediately to minimize mixing errors). A first order rate equation was fitted to the absorbance data, for each concentration of inhibitor, to obtain the rate constant (the first 10 to 15 seconds were excluded, as mixing causes errors in this portion of the curve). The catalytic rate was calculated from the enzymatic rate constant minus the background rate constant. An exponential curve was generated using the catalytic rate constants versus the inhibitor concentration to obtain the Ki value for the inhibitor. The Ki value is indicative of the binding affinity between the test compound and cyclophilin A.
# [2] = biological target: T2, Human recombinant 6-His tagged cyclophilin D (CypD) (Homo sapiens, UniProt P30405); assay: Protease-free PPIase assay, cyclophilin D; format: biochemical; conditions: human recombinant 6-His CypD, 10 °C, SUC-AAPF-pNA substrate; read-out: CypD Protease-free PPIase Assay Ki
# T2 construct: 6-His
# T2 sequence (P30405 30-207): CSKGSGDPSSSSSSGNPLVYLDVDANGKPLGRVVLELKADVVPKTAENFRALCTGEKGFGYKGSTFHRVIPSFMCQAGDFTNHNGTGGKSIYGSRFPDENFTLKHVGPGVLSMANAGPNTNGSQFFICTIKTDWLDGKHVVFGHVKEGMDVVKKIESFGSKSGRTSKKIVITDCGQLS
# Description: as §1
# calcineurin = biological target: T3, calcineurin (Homo sapiens, UniProt P62937+P63098+Q08209); assay: Calcineurin Phosphatase (CaN) Assay; format: biochemical; conditions: in the presence of CypA, 1:1 complex of inhibitor with CypA
# T3 construct: purchased Enzo Life Sciences BML-AK804
# From the text: Calcineurin Phosphatase (CaN) Assay
# The calcineurin phosphatase assay is a means for estimating the immunosuppressive potential of a test compound. Calcineurin is a serine-threonine protein phosphatase that on activation dephosphorylates members of the nuclear factor of activated T cells (NFAT), which are important in T lymphocyte activation.
# To investigate the immunosuppressive potential of exemplary compounds of Formula I, which are cyclosporin analogs, their ability to inhibit calcineurin activity was measured in the presence and absence of CypA.
# The CaN assay kit used is based on a colorimetric assay for measuring calcineurin phosphatase activity, and it is commercially available (Enzo Life Sciences and Calbiochem). Calmodulin is also required for calcineurin activity, and RII phosphopeptide is used as an efficient peptide substrate for calcineurin. […] The detection of free phosphate released is based on the classic Malachite green assay.
# Enzo Life Sciences CaN Assay Kit: BML-AK804
# For samples ‘without CypA’, a 4-point dilution series of the inhibitor was prepared in duplicate to obtain a final assay concentration of 10, 1, 0.1 and 0.01 μM. For samples ‘with CypA’, a 7-point dilution series was prepared to obtain a 1:1 complex of the inhibitor with CypA; the inhibitor and CypA final assay concentrations of 10, 3.33, 1.11, 0.37, 0.12, 0.04, 0.014 μM were prepared.
# using the half area 96 well plates supplied with the kit, 10 μl UPW was added to duplicate wells to provide the non-inhibited control. 10 μl of the inhibitor or the inhibitor/CypA complex was added to the appropriate sample wells. 25 μl of the 2× assay buffer with calmodulin (CaM) was added to all wells, then 5 μl of calcineurin phosphatase (CaN) was added to all wells (40 U per well final concentration) except duplicate ‘no calcineurin blank’ wells to which 5 μL 1× assay buffer was added. The assay plate was placed in an oven at 30° C. for 15 minutes to equilibrate to the reaction temperature. The reaction was started by the addition of 10 μl RII-peptide (0.15 mM final concentration). The reaction was allowed to proceed at 30° C. for a time period in which the reaction is linear for about 60 minutes. The reaction was then terminated by adding 100 μl of the Malachite Green reagent. The color was allowed to develop for 15-30 minutes at room temperature before the absorbance at 620 nm was measured using a plate reader (Molecular Devices—SpectraMax M5). The data were analyzed by subtracting ‘no calcineurin blank’ from all the absorbance readings and plotting the background corrected absorbances against Log10 inhibitor concentration. A sigmoidal-dose response curve was fitted to the data using GraphPad Prism Software.
# It exerts its immunosuppressive activity by binding to CypA to form a complex, which then binds to calcineurin and thereby inhibits calcineurin activity.
# physchem = conditions: 25 °C, pH 7.4, aqueous buffer, kinetic from dmso stock
# Description: The aqueous solubility of a compound of Formula I in buffer (pH 7.8) was measured by recording the onset of precipitation of the compound as a function of increasing concentration. The onset of precipitation, if it occurred, was detected by an increase in absorbance at 650 nm.
# Stock solutions of Control and Test Compounds: 10 mM in 100% DMSO.
# 10 mM stock solutions of control and test compounds were prepared in 100% DMSO.
# Assay buffer (247.5 μl) was placed into a flat bottomed transparent 96-well plate. For blank samples, DMSO (2.5 μl) was added. For test and control samples, 2.5 μl of the appropriate DMSO dilution stocks were added to the appropriate well. All test and control compounds were performed in triplicate.
# The plates were sealed with adhesive plate seal and shaken at 250 rpm at 25° C. for 18 h on a plate shaker. After incubation, the plate seals were taken off and any bubbles observed in wells removed. The plates were read on a SpectraMaxM5 with a 5 s pre-shake at 650 nm.
# Data files were transferred to the appropriate worksheet and the solubility range of the compounds was calculated from the data.
Compound,pKi [1],pKi [2],pIC50 (calcineurin),solubility at 18 h (physchem) [µM]
"CC[C@H]1NC(=O)[C@@H]([C@@H]2OCC[C@H]2C)N(C)C(=O)[C@@H](C(C)C)N(C)C(=O)[C@@H](CC(C)C)N(C)C(=O)[C@@H](CC(C)C)N(C)C(=O)[C@H](C)NC(=O)[C@@H](C)NC(=O)[C@@H](CC(C)C)N(C)C(=O)[C@@H](C(C)C)NC(=O)[C@H](CC(C)C)N(C)C(=O)CN(C)C1=O [Compound 4, [(2S)-2-(methylamino)-2-[(2R,3R)-3-methyltetrahydrofuran-2-yl]acetic acid]^1 cyclosporin A]",6.29,6.04,< 5.00,–
"CC[C@H]1NC(=O)[C@@H]([C@@H]2OCN(C)C[C@H]2C)N(C)C(=O)[C@@H](C(C)C)N(C)C(=O)[C@@H](CC(C)C)N(C)C(=O)[C@@H](CC(C)C)N(C)C(=O)[C@H](C)NC(=O)[C@@H](C)NC(=O)[C@@H](CC(C)C)N(C)C(=O)[C@@H](C(C)C)NC(=O)[C@H](CC(C)C)N(C)C(=O)CN(C)C1=O [Compound 23, [(2R)-2-[(5R,6R)-3,5-dimethyl-1,3-oxazinan-6-yl]-2-(methylamino)acetic acid]^1 cyclosporin A]",6.12,6.55,< 5.00,–
"CC[C@H]1NC(=O)[C@H]([C@@H]2[C@H](C)CCN2C)N(C)C(=O)[C@@H](C(C)C)N(C)C(=O)[C@@H](CC(C)C)N(C)C(=O)[C@@H](CC(C)C)N(C)C(=O)[C@H](C)NC(=O)[C@@H](C)NC(=O)[C@@H](CC(C)C)N(C)C(=O)[C@@H](C(C)C)NC(=O)[C@H](CC(C)C)N(C)C(=O)[C@@H](C)N(C)C1=O [Compound 19, [(2S)-2-[(2S,3R)-1,3-dimethylpyrrolidin-2-yl]-2-(methylamino)acetic acid]^1 [(R)-methyl-Sar]^3 cyclosporin A]",6.39,6.89,5.05,> 100
"CC[C@H]1NC(=O)[C@@H]([C@@H]2OCCCC[C@H]2C)N(C)C(=O)[C@@H](C(C)C)N(C)C(=O)[C@@H](CC(C)C)N(C)C(=O)[C@@H](CC(C)C)N(C)C(=O)[C@H](C)NC(=O)[C@@H](C)NC(=O)[C@@H](CC(C)C)N(C)C(=O)[C@@H](C(C)C)NC(=O)[C@H](CC(C)C)N(C)C(=O)CN(C)C1=O [Compound 16, [(2S)-2-(methylamino)-2-[(2R,3R)-3-methyloxepan-2-yl]acetic acid]^1 cyclosporin A]",6.41,6.25,5.18,–
"CC(C)C[C@@H]1C(=O)N(C)[C@H](CC(C)C)C(=O)N(C)[C@H](C(C)C)C(=O)N(C)[C@H]([C@@H]2OC(O)C[C@H]2C)C(=O)N[C@H](C(C)C)C(=O)N(C)CC(=O)N(C)[C@@H](CC(C)C)C(=O)N[C@H](C(C)C)C(=O)N(C)[C@H](CC(C)C)C(=O)N[C@H](C)C(=O)N[C@@H](C)C(=O)N1C (stereo partly drawn) [Compound 13, [(2S)-2-[(2R,3R)-5-Hydroxy-3-methyl-tetrahydrofuran-2-yl]-2-(methylamino)acetic acid]^1 cyclosporin D]",6.38,6.08,< 5.00,–

# Now those with a higher pKi [1], led by results:
pKi [1],pKi [2],pIC50 (calcineurin),solubility at 18 h (physchem) [µM],Compound
8.25,8.72,< 5.00,50,"CC(C)C[C@@H]1C(=O)N(C)[C@H](CC(C)C)C(=O)N(C)[C@H](C(C)C)C(=O)N(C)[C@H]([C@@H]2OCC[C@H]2C)C(=O)N[C@H](C(C)C)C(=O)N(C)[C@H](C)C(=O)N(C)[C@@H](CC(C)C)C(=O)N[C@H](C(C)C)C(=O)N(C)[C@H](CC(C)C)C(=O)N[C@H](C)C(=O)N[C@@H](C)C(=O)N1C [Compound 6, [(2S)-2-(methylamino)-2-[(2R,3R)-3-methyltetrahydrofuran-2-yl]acetic acid]^1 [(R)-methyl-Sar]^3 cyclosporin D] (cyclo(A[dNMeL][dNMeL][dNMeV][X1][dV][dNMeA][NMeL][dV][dNMeL][dA]))"
6.98,7.07,5.11,–,"CC[C@H]1NC(=O)[C@@H]([C@@H]2OCCCC[C@H]2C)N(C)C(=O)[C@@H](C(C)C)N(C)C(=O)[C@@H](CC(C)C)N(C)C(=O)[C@@H](CC(C)C)N(C)C(=O)[C@H](C)NC(=O)[C@@H](C)NC(=O)[C@@H](CC(C)C)N(C)C(=O)[C@@H](C(C)C)NC(=O)[C@H](CC(C)C)N(C)C(=O)[C@@H](C)N(C)C1=O [Compound 17, [(2S)-2-(methylamino)-2-[(2R,3R)-3-methyloxepan-2-yl]acetic acid]^1 [(R)-methyl-Sar]^3 cyclosporin A]"
6.57,7.74,< 5.00,–,"CC(C)C[C@@H]1C(=O)N(C)[C@H](CC(C)C)C(=O)N(C)[C@H](C(C)C)C(=O)N(C)[C@H]([C@@H]2OCC[C@H]2C)C(=O)N[C@H]([C@@H](C)O)C(=O)N(C)[C@H](C)C(=O)N(C)[C@@H](CC(C)C)C(=O)N[C@H](C(C)C)C(=O)N(C)[C@H](CC(C)C)C(=O)N[C@H](C)C(=O)N[C@@H](C)C(=O)N1C [Compound 11, [(2S)-2-(methylamino)-2-[(2R,3R)-3-methyltetrahydrofuran-2-yl]acetic acid]^1 [(R)-methyl-Sar]^3 cyclosporin C] (cyclo(A[dNMeL][dNMeL][dNMeV][X1][d(aThr)][dNMeA][NMeL][dV][dNMeL][dA]))"
7.31,7.92,< 5.00,–,"CC[C@H]1NC(=O)[C@@H]([C@@H]2OC(O)C[C@H]2C)N(C)C(=O)[C@@H](C(C)C)N(C)C(=O)[C@@H](CC(C)C)N(C)C(=O)[C@@H](CC(C)C)N(C)C(=O)[C@H](C)NC(=O)[C@@H](C)NC(=O)[C@@H](CC(C)C)N(C)C(=O)[C@@H](C(C)C)NC(=O)[C@H](CC(C)C)N(C)C(=O)[C@@H](C)N(C)C1=O (stereo partly drawn) [Compound 12, [(2R)-2-[(2R,3R)-5-hydroxy-3-methyl-tetrahydrofuran-2-yl]-2-(methylamino)acetic acid]^1[(R)-methyl-Sar]^3 cyclosporin A]"
6.52,7.38,5.09,–,"[(2R)-2-[(5R,6R)-3,5-dimethyl-2-oxo-1,3-oxazinan-6-yl]-2-(methylamino)acetic acid]^1 cyclosporin A [Compound 21]"
7.42,7.34,5.28,–,"CC[C@H]1NC(=O)[C@@H]([C@@H]2OCCC[C@H]2C)N(C)C(=O)[C@@H](C(C)C)N(C)C(=O)[C@@H](CC(C)C)N(C)C(=O)[C@@H](CC(C)C)N(C)C(=O)[C@H](C)NC(=O)[C@@H](C)NC(=O)[C@@H](CC(C)C)N(C)C(=O)[C@@H](C(C)C)NC(=O)[C@H](CC(C)C)N(C)C(=O)[C@@H](C)N(C)C1=O [Compound 15, [(2S)-2-(methylamino)-2-[(2R,3R)-3-methyltetrahydropyran-2-yl]acetic acid]^1 [(R)-methyl-Sar]^3 cyclosporin A]"
